# Source: PubChem BioAssay (NCI)
#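 A five-concentration, 48-hour dose response in 96-well plates underlies each endpoint, interpolated linearly between surrounding concentrations. TGI denotes the concentration required for complete inhibition of growth.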
# What was measured:
# Test in all cases: NCI-60 cell line screen, 48 h
# [1] = system: DLD-1 colon
# [2] = system: DMS 114 small cell lung
# [3] = system: DMS 273 small cell lung
# [4] = system: M19-MEL melanoma
compound,measurement,setting,value
CC(=O)OC(CCC1(C)OC1COc1ccc(CCNC(=O)c2ccccc2)cc1)C(C)(C)OC(C)=O (centres undefined),TGI,[1],> 100 µM
same,TGI,[2],15.8 µM
same,TGI,[3],24.8 µM
same,TGI,[4],69 µM
